{"source": "patent US20190365719A1", "about": "“COMBINATION TREATMENTS OF HSP90 INHIBITORS FOR ENHANCING TUMOR IMMUNOGENICITY AND METHODS OF USE THEREOF” (Massachusetts Institute of Technology, priority 2018, published 2019)", "key": {"MC38 cells": {"system": "MC38 cells", "assay": "qRT-PCR of MHC Class I and immunoproteasome genes in MC38 cells", "type": "cell-based, mouse", "conditions": "60 nM, 72 hours", "protocol": "FIGS. 5A-5L are graphs showing low dose administration of HSP90i diversifies the antigen repertoire of tumor cells. FIG. 5A is a bar graph showing relative mRNA expression MHC Class I and immunoproteasome gene expression in MC38 cells treated for 72 hours with HSP90i (60 nM) based on qRT-PCR analysis. All treated samples were normalized to DMSO (Veh)=1 (n=3); FIG. 5B is a schematic depiction of the effect of HSP90i treatment on proteasome composition and ONX-0914 mode of action; FIG. 5C is a bar graph showing cell surface expression of MHC Class I on MC38 cells treated with vehicle or HSP90i in combination with DMSO or ONX-0914 (500 nM). Normalized values calculated based on the median fluorescence intensity of the baseline sample for DMSO- or ONX-0914-treated samples (n=3); FIG. 5D is a schematic overview of protocol for MHC Class I peptide profiling; motif analysis for amino acid enrichment of 8-mer (FIG. 5E) and 9-mer peptides (FIG. 5F) identified by mass spectrometry; FIG. 5G is a histogram depicting the size distribution of peptides identified by MHC Class I IP and mass spectrometry; FIG. 5H is a Venn diagram of the number of unique peptides identified in vehicle- and Hsp90i-treated samples. […]"}, "[1]": {"assay": "Plasma HSP90i concentration in mice by LC/MS", "type": "in vivo, C57Bl/6 and NOD-SCID mice", "conditions": "0.5 mg/kg/day in drinking water, both strains (C57Bl/6 and NOD-SCID)", "protocol": "For oral dosing with HSP90i, the average water consumption of the mice was calculated by measuring water bottle weight before and after 72 hours of housing to determine the average consumption per mouse, per day. Across all experiments, C57Cl/6 mice consumed approximately 4 mL every day. Using these water consumption values, and mouse weight, a 4 mg/mL stock solution of NVP-HSP990 (in 100% PEG400) was diluted directly into the drinking water to achieve a target dose of 0.5 mg/kg/day. HSP990 treatment was begun 72 hours prior to implantation of MC38 cells to allow the drug to reach steady state level prior to tumor challenge.\nSerum NVP-HSP990 levels were analyzed by sacrificing mice, performing a cardiac puncture, and isolating approximately 500 μL of whole blood. Blood was transferred to EDTA-coated microtubes and placed on ice. After all samples were collected, they were spun at 10,000×g for 15 min. The supernatant plasma was collected and stored at −80° C. until further processing. 2×10 μL aliquots of serum from each animal was extracted with 40 μL of ice cold acetonitrile and shaken for 30 min at 4° C. The acetonitrile solvent was spiked with 10 nM imatinib as an internal standard for mass spectrometry. Following extraction, samples were spun at 20,000×g for 15 min and the de-proteinated supernatant transferred to a clean Eppendorf tube prior to mass spectrometry analysis. […]"}}, "data": [{"smiles": "COc1cccc(-c2cc(F)ccc2[C@H]2Cc3nc(N)nc(C)c3C(=O)N2)n1", "note": "[NVP-HSP990]", "values": [{"measurement": "expression of immunoproteasome genes Psme1, Psme2, Psmb8, Psmb9, Psmb10", "setting": "MC38 cells", "value": "robustly induced"}, {"measurement": "transcript levels of MHC Class I heavy chains H2-K1 and H2-D1 or light chain B2m", "setting": "MC38 cells", "value": "did not alter transcript levels"}, {"measurement": "plasma concentration of HSP90i", "setting": "[1]", "value": "~20", "unit": "nM"}]}]}
